The values that follow come from patent publication US4490388A, “Amidine compound and anticomplement agent comprising same” (Torii & Co., Ltd., priority 1981, dated 1984).

The structures appear in SMILES notation. Like-named read-outs stand apart in the source and are kept apart here.

One data set addresses T1, C1r (Homo sapiens, UniProt P00736).
T1 sequence (P00736 464-705 limits assumed): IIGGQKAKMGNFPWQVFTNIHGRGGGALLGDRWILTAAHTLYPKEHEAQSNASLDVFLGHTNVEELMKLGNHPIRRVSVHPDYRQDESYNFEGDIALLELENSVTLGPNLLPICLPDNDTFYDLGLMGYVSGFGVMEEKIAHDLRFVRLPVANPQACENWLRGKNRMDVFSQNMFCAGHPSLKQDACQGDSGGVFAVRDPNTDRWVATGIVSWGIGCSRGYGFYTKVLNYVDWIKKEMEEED
T1 sequence (P00736 18-463 partner limits assumed): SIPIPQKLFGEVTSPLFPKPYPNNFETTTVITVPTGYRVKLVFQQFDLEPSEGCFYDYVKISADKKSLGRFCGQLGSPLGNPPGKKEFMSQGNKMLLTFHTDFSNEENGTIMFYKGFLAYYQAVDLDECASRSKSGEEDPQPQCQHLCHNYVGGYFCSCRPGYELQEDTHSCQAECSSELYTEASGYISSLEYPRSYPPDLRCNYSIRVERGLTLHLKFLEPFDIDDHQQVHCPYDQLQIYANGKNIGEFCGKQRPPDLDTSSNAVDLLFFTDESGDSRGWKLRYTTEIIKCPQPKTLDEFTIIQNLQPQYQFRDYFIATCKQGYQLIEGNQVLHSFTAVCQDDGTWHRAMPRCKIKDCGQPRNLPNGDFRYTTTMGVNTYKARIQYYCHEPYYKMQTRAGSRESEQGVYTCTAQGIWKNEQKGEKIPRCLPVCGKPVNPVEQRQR
Put plainly: Anti-C1 esterase activity, C1r (hydrolysis of AAME). Type of data set: biochemical. The settings on record: for inhibition at 10 µM: at 1×10^-5 M, read-out: Anti-C1 activity, C1r percent inhibition; for IC50: molar concentration inhibiting 50% of AAME hydrolysis, read-out: Anti-C1 activity, C1r id50. The method, then:
The anti-C1 esterase (C1r, C1s) activity was determined according to the method of Okamura et al. [K. Okamura, M. Muramatsu and B. Fujii, Biochem. Biophys. […] The figures in Table 2 have the following meanings:
C1r: Molar concentration of the test compound which inhibits 50% of the ability of C1r to hydrolyse AAME (acetylarginin methyl ester) (id50).

The target in another data set is T2, Trypsin (Bos taurus, UniProt P00760).
T2 sequence (P00760 24-246): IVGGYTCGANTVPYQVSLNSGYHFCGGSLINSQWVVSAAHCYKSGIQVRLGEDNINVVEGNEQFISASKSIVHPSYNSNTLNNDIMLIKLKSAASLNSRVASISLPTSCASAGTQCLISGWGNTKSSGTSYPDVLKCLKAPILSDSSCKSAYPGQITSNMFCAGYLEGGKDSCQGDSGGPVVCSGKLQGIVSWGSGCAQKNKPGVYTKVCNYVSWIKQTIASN
The experiment in a line: Anti-trypsin activity (hydrolysis of TAME). Type of data set: biochemical. The protocol: (§1) The anti-trypsin, anti-plasmin, anti-kallikrein and anti-thrombin activities were determined according to the method of Muramatsu et al. [M. Muramatsu, T. Onishi, S. Makino, Y. Hayashi and S. Fujii, J. of Biochem., 58, 214 (1965)]. The data summarized in Table 1 are expressed in terms of molar concentration (id50) of the test compound which inhibits 50% of the activity of each enzyme to hydrolyze TAME (tosylarginine methyl ester). The compound No. corresponds to the compound number shown in Examples.

The next data set has as its system complement. Put plainly: Inhibition of complement mediated hemolysis. Type of data set: cell-based. To be noted: read-out: Inhibition of complement mediated hemolysis (%).
In a further data set the target is Plasmin (Homo sapiens, UniProt P00747). Put plainly: Anti-plasmin activity (hydrolysis of TAME). Type of data set: biochemical. The protocol: as §1
In the next data set the target is Thrombin (Bos taurus, UniProt P00735). The experiment in a line: Anti-thrombin activity (hydrolysis of TAME). Type of data set: biochemical. The method, then:
as §1

A short description of data set [1]: Toxicity, median lethal dose (LD50). To be noted: in vivo.
[2] abbreviates: molar concentration inhibiting 50% of TAME hydrolysis, read-out: id50, Trypsin.
Where [3] appears, read: molar concentration inhibiting 50% of TAME hydrolysis, read-out: id50, Plasmin.

What is called inhibition is the change of the read-out against control, counted positive when it falls. One may read the LD50 as the dose at which mortality reaches 50%.

Sequence of Plasmin (P00747 581-810 limits assumed): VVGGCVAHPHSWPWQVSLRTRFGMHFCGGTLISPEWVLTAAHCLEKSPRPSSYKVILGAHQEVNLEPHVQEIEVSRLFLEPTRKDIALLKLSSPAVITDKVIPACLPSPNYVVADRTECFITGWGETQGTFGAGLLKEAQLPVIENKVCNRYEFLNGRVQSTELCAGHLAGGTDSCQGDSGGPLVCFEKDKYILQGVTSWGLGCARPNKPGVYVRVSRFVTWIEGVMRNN
Sequence of Plasmin (P00747 97-580 partner limits assumed): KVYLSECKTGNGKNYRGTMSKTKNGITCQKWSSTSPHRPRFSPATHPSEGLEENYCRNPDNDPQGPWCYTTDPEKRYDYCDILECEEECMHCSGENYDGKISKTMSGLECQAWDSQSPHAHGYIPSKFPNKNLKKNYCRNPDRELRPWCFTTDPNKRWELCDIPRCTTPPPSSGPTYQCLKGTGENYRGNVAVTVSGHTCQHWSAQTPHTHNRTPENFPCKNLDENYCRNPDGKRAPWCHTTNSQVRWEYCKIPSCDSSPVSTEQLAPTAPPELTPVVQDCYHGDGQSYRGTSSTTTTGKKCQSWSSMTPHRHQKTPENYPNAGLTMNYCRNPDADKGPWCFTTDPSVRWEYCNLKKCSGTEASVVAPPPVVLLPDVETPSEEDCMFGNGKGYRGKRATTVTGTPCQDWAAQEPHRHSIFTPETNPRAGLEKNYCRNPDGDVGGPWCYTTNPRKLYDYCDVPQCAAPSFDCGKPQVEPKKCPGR
Protocol for complement: The complement mediated hemolysis is widely used as a means to determine the titration of complement. The principle of this method is based on the fact that hemolysis is caused by the activation of complement, when the latter is added to a complex (immune complex) of erythrocytes and the autibody thereof. The degree of hemolysis varies in proportion to the amount of complement added. Therefore, when a known amount of complement admixed with a C1 esterase inhibitor is used, the hemolysis must be suppressed in proportion to the inhibitory activity.
The anti-C1 esterase (C1r, C1s) activity was determined according to the method of Okamura et al. [K. Okamura, M. Muramatsu and B. Fujii, Biochem. Biophys. […] The inhibition of complement mediated hemolysis was determined according to the method of Baker et al. [B. R. Baker and E. H. Erickson, J. Med. Chem., 12, 408-414 (1969)].

On to `N=C(N)C=Cc1ccc(OC(=O)CCCCCNC(=N)N)cc1` [Compound 9, 4-(β-amidinoethenyl)phenyl 6-guanidinocaproate], for which the inhibition at 10 µM was 28% at C1r and 72% in the data set with complement (1 × 10^-5 M). The values for the IC50 on Trypsin (setting [2]), on Plasmin (setting [3]) and at Thrombin were 0.03 µM, above 10 µM and above 10 µM, respectively. Also, the inhibition at 100 µM in the data set on complement (1 × 10^-4 M) stood at 97%. Also, in the data set with complement (1 × 10^-7 M), the inhibition at 0.1 µM was found to be 0%. Moreover, the inhibition at 1 µM in the data set on complement amounted to 6%.
Turning to `N=C(N)C=Cc1ccc(OC(=O)[C@H]2CC[C@H](CN)CC2)cc1` [Compound 10, 4-(β-amidinoethenyl)phenyl trans-4-aminomethylcyclohexanecarboxylate], the values for the inhibition at 10 µM on C1r and in the data set on complement (1 × 10^-5 M) were 46% and 99%, respectively. Moreover, the IC50 on Trypsin (setting [2]) was 6 µM; at Plasmin (setting [3]), 6 µM; at Thrombin, above 10 µM. Also, in the data set on complement (1 × 10^-4 M), the inhibition at 100 µM came to 100%. In addition, the inhibition at 1 µM in the data set with complement (1 × 10^-6 M) is 98%. Moreover, in the data set on complement (1 × 10^-7 M), the inhibition at 0.1 µM worked out at 74%.
For `N=C(N)C=Cc1ccc(OC(=O)[C@H]2CC[C@H](CNC(=O)OCc3ccccc3)CC2)cc1` [Compound 11, 4-(β-amidinoethenyl)phenyl trans-4-benzyloxycarbonylaminomethylcyclohexanecarboxylate], the IC50 on C1r is 5 µM; on Trypsin (setting [2]), 5 µM; on Plasmin (setting [3]), 0.3 µM; at Thrombin, above 10 µM. The inhibition at 10 µM in the data set on complement (1 × 10^-5 M) turned out to be 99%. Also, the inhibition at 1 µM in the data set on complement (1 × 10^-6 M) was determined as 82%. Further, the inhibition at 0.1 µM in the data set on complement was 25%. Moreover, in the data set with complement, the inhibition at 100 µM turned out to be 95%.
For `N=C(N)C=Cc1ccc(OC(=O)Cc2ccccc2)cc1` [Compound 13, 4-(β-amidinoethenyl)phenyl phenylacetate], the inhibition at 10 µM on C1r was found to be 21%. In addition, the IC50 against Trypsin came out at 1 µM. In addition, in the data set on complement, the inhibition at 0.1 µM was found to be 0%, the inhibition at 1 µM stood at 6%, the inhibition at 10 µM was found to be 31% and the inhibition at 100 µM amounted to 99%. At Plasmin, this compound showed an IC50 of 10 µM. On Thrombin, this compound showed an IC50 of 5 µM.
As for `CC(C)Cc1ccc(C(C)C(=O)Oc2ccc(C=CC(=N)N)cc2)cc1` (stereo not shown) [Compound 14], the inhibition at 10 µM at C1r was found to be 38%; with complement (1 × 10^-5 M), 74%. Moreover, the IC50 on Trypsin (setting [2]) is 9 µM; on Plasmin (setting [3]), 8 µM; against Thrombin, 8 µM. The inhibition at 100 µM in the data set on complement (1 × 10^-4 M) was 0%. In addition, in the data set on complement (1 × 10^-6 M), the inhibition at 1 µM was 10%. Moreover, in the data set on complement (1 × 10^-7 M), the inhibition at 0.1 µM worked out at 0%.
With `N=C(N)C=Cc1ccc(OC(=O)CCc2ccccc2)cc1` [Compound 15], the inhibition at 10 µM on C1r and with complement (1 × 10^-5 M) was 10% in each case. In addition, the IC50 at Trypsin (setting [2]) is 2 µM; at Plasmin (setting [3]) it was above 10 µM; against Thrombin it was above 10 µM. The inhibition at 0.1 µM with complement (1 × 10^-7 M) amounted to 0%. In the data set with complement, the inhibition at 1 µM came out at 2%. Further, the inhibition at 100 µM in the data set on complement was 80%.
On to `Cc1ccc(C(=O)Oc2ccc(C=CC(=N)N)cc2)cc1` [Compound 20], for which the IC50 on C1r is 1 µM; on Trypsin (setting [2]) it was 0.03 µM; on Plasmin (setting [3]) it was 4 µM; against Thrombin, above 10 µM. For the same compound, in the data set on complement (1 × 10^-4 M), the inhibition at 100 µM was 97%. In addition, the inhibition at 10 µM with complement (1 × 10^-5 M) was found to be 75%. Further, in the data set with complement (1 × 10^-6 M), the inhibition at 1 µM was 38%. Further, the inhibition at 0.1 µM in the data set on complement (1 × 10^-7 M) came to 17%.
For `CC(C)(C)c1ccc(C(=O)Oc2ccc(C=CC(=N)N)cc2)cc1` [Compound 22], the IC50 on C1r was found to be 5 µM; on Trypsin (setting [2]), 5 µM; at Plasmin (setting [3]) it was 3 µM; at Thrombin, 3 µM. In addition, in the data set on complement (1 × 10^-4 M), the inhibition at 100 µM was 88%. For the same compound, in the data set with complement (1 × 10^-5 M), the inhibition at 10 µM was found to be 76%. Besides, the inhibition at 1 µM in the data set with complement (1 × 10^-6 M) was 25%. Further, in the data set on complement (1 × 10^-7 M), the inhibition at 0.1 µM is 11%.
Take `N=C(N)C=Cc1ccc(OC(=O)c2ccc(OCc3ccccc3)cc2)cc1` [Compound 26]: the inhibition at 10 µM on C1r worked out at 37%; in the data set on complement (1 × 10^-5 M) it was 14%. Besides, the IC50 at Trypsin (setting [2]) is 0.2 µM; at Plasmin (setting [3]) it was above 10 µM; at Thrombin it was above 10 µM. In the data set on complement (1 × 10^-4 M), the inhibition at 100 µM was 38%. The inhibition at 1 µM in the data set on complement (1 × 10^-6 M) worked out at 6%. Also, the inhibition at 0.1 µM with complement (1 × 10^-7 M) came out at 0%.
For `CSc1ccc(C(=O)Oc2ccc(C=CC(=N)N)cc2)cc1` [Compound 28], the IC50 on C1r stood at 0.9 µM; at Plasmin (setting [3]), 1 µM; on Thrombin, 3 µM. Further, the inhibition at 10 µM on Trypsin (at 1×10^-5 M, read-out: percentage inhibition, Trypsin) was determined as 26%; in the data set on complement (1 × 10^-5 M), 71%. In addition, the inhibition at 100 µM in the data set with complement (1 × 10^-4 M) was determined as 97%. Besides, in the data set with complement (1 × 10^-6 M), the inhibition at 1 µM was 34%. Also, the inhibition at 0.1 µM in the data set on complement came out at 23%.
In the case of `N=C(N)C=Cc1ccc(OC(=O)c2ccc(C=O)cc2)cc1` [Compound 30], the IC50 stood at 1 µM at C1r, 4 µM at Trypsin (setting [2]), 0.6 µM at Plasmin (setting [3]) and 0.6 µM on Thrombin. For the same compound, the inhibition at 100 µM with complement (1 × 10^-4 M) worked out at 99%. In addition, in the data set on complement (1 × 10^-5 M), the inhibition at 10 µM worked out at 94%. Further, in the data set on complement (1 × 10^-6 M), the inhibition at 1 µM amounted to 62%. The inhibition at 0.1 µM with complement came out at 45%.
For the compound `CN(C)c1ccc(C(=O)Oc2ccc(C=CC(=N)N)cc2)cc1` [Compound 32], the IC50 at C1r was 10 µM; at Trypsin (setting [2]), 1 µM; at Plasmin (setting [3]), above 10 µM; against Thrombin, above 10 µM. The inhibition at 100 µM in the data set on complement (1 × 10^-4 M) stood at 73%. Also, the inhibition at 10 µM in the data set with complement (1 × 10^-5 M) worked out at 80%. For the same compound, the inhibition at 1 µM in the data set with complement (1 × 10^-6 M) turned out to be 50%. Further, the inhibition at 0.1 µM with complement (1 × 10^-7 M) was found to be 32%.
Take `N=C(N)C=Cc1ccc(OC(=O)c2ccc(CN)cc2)cc1` [Compound 34]: in the data set with complement (1 × 10^-4 M), the inhibition at 100 µM was 100%. Further, in the data set with complement (1 × 10^-5 M), the inhibition at 10 µM came to 99%. Also, the inhibition at 1 µM in the data set with complement (1 × 10^-6 M) worked out at 99%. Also, the inhibition at 0.1 µM in the data set with complement (1 × 10^-7 M) turned out to be 86%. Also, the LD50 in data set [1] (ip) came to 200 mg/kg; in data set [1] (po), 2500 mg/kg.
`N=C(N)C=Cc1ccc(OC(=O)c2ccc(Cl)cc2)cc1` [Compound 39]: the IC50 turned out to be 0.5 µM on C1r, 2 µM on Trypsin (setting [2]), 4 µM on Plasmin (setting [3]) and 2 µM against Thrombin. The inhibition at 100 µM with complement (1 × 10^-4 M) was found to be 100%. In addition, in the data set with complement (1 × 10^-5 M), the inhibition at 10 µM came to 99%. Besides, the inhibition at 1 µM in the data set on complement (1 × 10^-6 M) was 89%. For the same compound, the inhibition at 0.1 µM in the data set on complement (1 × 10^-7 M) was determined as 71%.
Regarding `N=C(N)C=Cc1ccc(OC(=O)C=Cc2cccc(C(F)(F)F)c2)cc1` [Compound 41], the inhibition at 10 µM on C1r was 20%; with complement (1 × 10^-5 M), 10%. In addition, the IC50 was 3 µM at Trypsin (setting [2]), 3 µM on Plasmin (setting [3]) and above 10 µM against Thrombin. Moreover, the inhibition at 100 µM in the data set with complement (1 × 10^-4 M) was determined as 71%. In addition, the inhibition at 1 µM in the data set on complement (1 × 10^-6 M) was found to be 10%. The inhibition at 0.1 µM with complement (1 × 10^-7 M) stood at 0%.
